Laboratory results taken from US20090233910A1, “Npy antagonists, preparation and uses” (CEREP, priority 2005, published 2009).

Key:
NPY Y1 receptor = target: T1, NPY Y1 receptor (Homo sapiens, UniProt P25929); assay: Binding test to the NPY Y1 receptor ([125I]-PYY, SK-N-MC cell suspension); settings: SK-N-MC cells, 25 pM [125I]-PYY
T1 construct: host or cells: SK-N-MC cells (whole-cell suspension)
T1 sequence (P25929 1-384): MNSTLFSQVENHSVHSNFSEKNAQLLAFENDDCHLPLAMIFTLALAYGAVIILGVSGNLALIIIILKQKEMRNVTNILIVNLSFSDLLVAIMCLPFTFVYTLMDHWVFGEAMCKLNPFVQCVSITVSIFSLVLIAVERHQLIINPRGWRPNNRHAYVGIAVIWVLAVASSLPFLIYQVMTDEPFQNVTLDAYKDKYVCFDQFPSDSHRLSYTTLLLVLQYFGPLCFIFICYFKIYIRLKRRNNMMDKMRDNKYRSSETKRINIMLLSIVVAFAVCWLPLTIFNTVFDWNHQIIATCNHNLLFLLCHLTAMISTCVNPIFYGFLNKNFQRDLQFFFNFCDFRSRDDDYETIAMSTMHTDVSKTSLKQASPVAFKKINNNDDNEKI
Procedure: The SK-N-MC cells (ATCC HBT10) are cultured at 37° C. in MEM medium (minimum essential medium) free of phenol red (Invitrogen ref. 04194565M) containing 10% foetal calf serum (Invitrogen ref. 10270-106), 1% non-essential aminoacids (Invitrogen ref. 11140-035), 1% sodium pyruvate (Invitrogen ref. 11360-039), 1% glutamine (Invitrogen ref. 25030-032), 100 IU/ml of penicillin and 100 μg/ml of streptomycin (Invitrogen ref. 15140-122) in a humid atmosphere containing 5% CO2.
After aspirating the culture medium, the cells are washed with a phosphate buffer pH 7.4 (Invitrogen ref. 14190-094), then lifted with a Versene solution (Invitrogen, ref 15040-033). The cells are centrifuged at 500×g for 10 minutes at 4° C. then resuspended in a freeze buffer pH 7.4 containing 50 mM HEPES (N-2-hydroxyethylpiperazine-N′-2-ethanesulfonic acid), 145 mM sodium chloride, 2.6 mM calcium chloride, 1 mM magnesium chloride, 10 mM glucose, and 1 mg/ml bovine albumin. The cell suspension is aliquoted into twenty million cells per milliliter of buffer and stored at −70° C.
The cell suspension is incubated 2 hours at 37° C. in an incubation buffer pH 7.4 containing 50 mM HEPES, 2.5 mM calcium chloride, 1 mM magnesium chloride, 0.025% sodium azide, 1 mg/ml bovine albumin and 25 pM [^125I]-PYY (Perkin Elmer, NEX341). The reaction is halted by filtering through a GF/B filter pre-treated with 0.3% PEI, and washed three times with 1 ml of 50 mM TRIS buffer [tris(hydroxymethyl)aminomethane]/HCl, pH 7.4. The radioactivity deposited on the filter is measured by liquid scintillation count (TopCount, Packard). Non-specific binding is determined in the presence of 1 μM NPY (Bachem, H3322). Results are expressed as IC50 values in nM calculated by non-linear regression with 4 parameters.

NPY Y2 receptor = target: T2, NPY Y2 receptor (Homo sapiens, UniProt P49146); assay: Binding test to the NPY Y2 receptor ([125I]-PYY, KAN.TS cell suspension)
T2 construct: host or cells: KAN.TS cells (whole-cell suspension)
T2 sequence (P49146 1-381): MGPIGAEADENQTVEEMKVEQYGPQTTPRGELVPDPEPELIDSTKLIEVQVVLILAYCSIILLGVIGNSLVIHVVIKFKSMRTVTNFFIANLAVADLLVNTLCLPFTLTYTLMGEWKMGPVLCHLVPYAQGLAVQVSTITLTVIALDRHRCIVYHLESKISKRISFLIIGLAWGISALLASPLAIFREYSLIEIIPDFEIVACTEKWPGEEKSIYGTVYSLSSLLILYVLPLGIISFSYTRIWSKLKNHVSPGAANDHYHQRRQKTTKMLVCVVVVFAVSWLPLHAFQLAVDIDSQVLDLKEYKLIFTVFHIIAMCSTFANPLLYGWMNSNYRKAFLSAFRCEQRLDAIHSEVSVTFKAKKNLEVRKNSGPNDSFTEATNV
Procedure: The KAN.TS cells (Amersham RPNQ0081) are cultured at 37° C. in DMEM Glutamax medium (Life Technology ref. 61965026) containing 15% foetal calf serum (Invitrogen), 1% L-Glutamine (Invitrogen ref.250300-032), 50 IU/ml penicillin and 50 μg/ml of streptomycin (Invitrogen ref. 15070022) in a humid atmosphere containing 5% CO2.
After aspirating the culture medium, the cells are washed with phosphate buffer pH 7.4 (Sigma ref. D5652), then lifted with a solution of PBS^−, 0.5 mM EDTA (ethylenediaminetetraacetic acid) (Sigma ref ED 2SS). […] The cells are counted and centrifuged at 1500 rpm for 10 min then resuspended in the freeze buffer and aliquoted into ten million cells per millilitre of freeze buffer, and stored at −70° C.
The cell suspension with 25000 cells/ml is incubated 1 h at 37° C. in an incubation buffer pH 7.4 containing 50 mM HEPES/NaOH, 2.5 mM calcium chloride, 1 mM magnesium chloride, 0.025% sodium azide, 1 mg/ml bovine albumin and 15 pM of [^125I]-PYY (Perkin Elmer, NEX341). […] The radioactivity deposited on the filter is measured by liquid scintillation count (TopCount, Packard). Non-specific binding is determined in the presence of 1 μM NPY (Bachem, H3322). […]

CCCCN1CCC(Oc2ccc(C(=O)Nc3ccc(Oc4ccc(NC(=O)NC(CC)CC)cc4OC)cc3)cc2)CC1 [Example 103, 4-(1-Butyl-piperidin-4-yloxy)-N-(4-{4-[3-(1-ethyl-propyl)-ureido]-2-methoxy-phenoxy}-phenyl)-benzamide]
IC50 (NPY Y1 receptor): 1.8 nM
IC50 (NPY Y2 receptor; KAN.TS cells, [125I]-PYY): > 10000 nM
inhibition at 10 µM (NPY Y2 receptor; inhibition of specific binding at 10 μM of compound, read-out: % Inh at 10 μM Y2): 10%
